Experimental data from patent US20230330120A1, “COMPOSITION FOR PREVENTING HAIR LOSS OR PROMOTING HAIR REGROWTH” (LG HOUSEHOLD & HEALTH CARE LTD., priority 2020, published 2023).
Read-outs that look alike come from different tables or passages of the source.

How the values were obtained:
[1] = system: human-derived dermal papilla cells (DPCs); test: Proliferation of dermal papilla cells (CCK-8); assay type: cell-based; details: for activity at 2 µg/mL / activity at 20 µg/mL: read-out: Proliferation of dermal papilla cells (%)
Description: The effect of promoting the proliferation of dermal papilla cells was investigated using human-derived dermal papilla cells (DPCs). The human-derived dermal papilla cells were purchased from PromoCell. The DPCs were cultured using a medium (follicle dermal papilla cell growth medium; PromoCell, Heidelberg, Germany) and a medium additive (supplement mix; PromoCell, Heidelberg, Germany) recommended by PromoCell under the condition of 37° C. and 5% CO2. The cultured DPCs were seeded onto a 96-well plate at 3,000 cells/well and then cultured for 24 hours under 0.1% serum condition. Then, the cultured cells were incubated for 1 day after treating with DMSO diluted with serum-free DMEM to 1:1000 (vehicle), 0.1 μg/mL minoxidil as a positive control group, or at 2 or 20 μg/mL valechlorine, tussilagone, periplocin, lysionotin, nitidine, lanosterol, engeletin, specnuezhenide, praeruptorin B, rotundic acid, sesamoside or polyphyllin VII. After the incubation, cell proliferation was evaluated by the CCK method. CCK-8 was treated to a medium at 1:10 and then incubated for 1 hour. 1 hour later, the absorbance of each well was measured at 450 nm. All experiments were repeated 3 times and the average of absorbance was calculated. The control group was set at 100%, and the results were represented as a percentage compared to the control group.

[2] = system: β-catenin; test: Expression of β-catenin protein in dermal papilla cells (SDS-PAGE / anti-β-catenin antibody); assay type: cell-based, human; details: for activity at 2 µg/mL / activity at 20 µg/mL: Homo sapiens, 24 h, read-out: Expression level of β-catenin protein (%)
Description: Human dermal papilla cells were seeded onto a 6-well plate at 500,000 cells/well and then incubated for 1 day after treating with 2 or 20 μg/mL valechlorine, tussilagone, periplocin, lysionotin, nitidine, lanosterol, engeletin, specnuezhenide, praeruptorin B, rotundic acid, sesamoside or polyphyllin VII. After the incubation, the cells were lysed using an M-PER lysis buffer and a cell lysate of the same volume was loaded on SDS-PAGE gel. After transferring the cell lysate loaded on the SDS-PAGE gel to a nitrocellulose membrane, proteins were detected by attaching anti-β-catenin antibodies to the nitrocellulose membrane. GAPDH was used as a control for calibrating the quantity of proteins. The amount of β-catenin increased by the valechlorine, tussilagone, periplocin, lysionotin, nitidine, lanosterol, engeletin, specnuezhenide, praeruptorin B, rotundic acid, sesamoside or polyphyllin VII was investigated. The control group was set at 100%, and the results were represented as a percentage compared to the control group as shown in Table 5.

[3] = system: β-catenin; test: as above; assay type: cell-based, human; details: 0.5 μg/mL (positive control); control group = 100%
[4] = Homo sapiens, 24 h, 2 μg/mL, 1 day, control group = 100%
[5] = Homo sapiens, 24 h, 20 μg/mL, 1 day, control group = 100%
[6] = 2 μg/mL, 1 day, control group = 100%, GAPDH calibration
[7] = 20 μg/mL, 1 day, control group = 100%, GAPDH calibration

Molecule | activity at 2 µg/mL [1, 4] | activity at 20 µg/mL [1, 5] | activity at 2 µg/mL [2, 6] | activity at 20 µg/mL [2, 7] | other results
C[C@@H]1CC[C@]2(C(=O)O)CC[C@]3(C)C(=CC[C@@H]4[C@@]5(C)CC[C@H](O)[C@@](C)(CO)[C@@H]5CC[C@]43C)[C@@H]2[C@]1(C)O [Rotundic acid] | 156% | 183% | 211% | 258% | 
COc1cc2c[n+](C)c3c4cc5c(cc4ccc3c2cc1OC)OCO5 [Nitidine] | 155% | 181% | 220% | 262% | 
CC(C)=CCC[C@@H](C)[C@H]1CC[C@@]2(C)C3=C(CC[C@]12C)[C@@]1(C)CC[C@H](O)C(C)(C)[C@@H]1CC3 [Lanosterol] | 143% | 189% | 241% | 246% | 
C/C=C1/[C@H](O[C@@H]2O[C@H](CO)[C@@H](O)[C@H](O)[C@H]2O)OC=C(C(=O)OC)[C@H]1CC(=O)OC[C@H]1O[C@@H](OCCc2ccc(O)cc2)[C@H](O)[C@@H](O)[C@@H]1O [Specnuezhenide] | 150% | 170% | 216% | 289% | 
C=C1[C@H](OC(=O)/C=C(\C)CC)C[C@@H](C(C)C)[C@@H]2[C@@H]([C@H](C)OC(C)=O)C(=O)C[C@@H]12 [Tussilagone] | 157% | 178% | 208% | 253% | 
C/C=C(\C)C(=O)OC1c2c(ccc3ccc(=O)oc23)OC(C)(C)C1OC(=O)/C(C)=C/C (stereo not drawn) [Praeruptorin B] |  |  |  |  | activity at 2 µg/mL ([1]; Homo sapiens, 24 h): 144%; activity at 20 µg/mL ([1]; Homo sapiens, 24 h): 173%; activity at 2 µg/mL [2]: 211%; activity at 20 µg/mL [2]: 250%
COC(=O)C1=CO[C@@H](O[C@@H]2O[C@H](CO)[C@@H](O)[C@H](O)[C@H]2O)[C@@H]2[C@@]3(C)O[C@H]3[C@@H](O)[C@]12O [Sesamoside] | 168% | 194% | 245% | 295% | 
Engeletin |  |  |  |  | Proliferation of dermal papilla cells (%) ([1]; 2 μg/mL, 1 day, control group = 100%): 143.2%; Proliferation of dermal papilla cells (%) ([1]; 20 μg/mL, 1 day, control group = 100%): 188.1%; Expression level of β-catenin protein (%) [2, 6]: 231.1%; Expression level of β-catenin protein (%) [2, 7]: 276.3%
COc1ccc(-c2cc(=O)c3c(O)c(OC)c(O)c(OC)c3o2)cc1 [Lysionotin] | 164% | 179% | 210% | 232% | 
Nc1cc(N2CCCCC2)nc(N)[n+]1[O-] [Minoxidil, reference compound] |  |  |  |  | activity at 0.1 µg/mL ([1]; Homo sapiens, 24 h, 100 ng/ml (positive control), 1 day, control group = 100%): 130%
CC(=O)OCC1=CO[C@@H](OC(=O)CC(C)C)[C@H]2C1=C[C@H](OC(=O)CC(C)C)[C@]2(O)CCl [Valechlorine] |  |  |  |  | activity at 2 µg/mL ([1]; Homo sapiens, 24 h): 146%; activity at 20 µg/mL ([1]; Homo sapiens, 24 h): 159%; activity at 2 µg/mL [2]: 217%; activity at 20 µg/mL [2]: 234%
Wnt3a: Wnt3a protein (positive control group) which binds directly to the receptor of Wnt/β-catenin (protein, UniProt P56704 19-352, looked up) Protein Wnt-3a: SYPIWWSLAVGPQYSSLGSQPILCASIPGLVPKQLRFCRNYVEIMPSVAEGIKIGIQECQHQFRGRRWNCTTVHDSLAIFGPVLDKATRESAFVHAIASAGVAFAVTRSCAEGTAAICGCSSRHQGSPGKGWKWGGCSEDIEFGGMVSREFADARENRPDARSAMNRHNNEAGRQAIASHMHLKCKCHGLSGSCEVKTCWWSQPDFRAIGDFLKDKYDSASEMVVEKHRESRGWVETLRPRYTYFKVPTERDLVYYEASPNFCEPNPETGSFGTRDRTCNVSSHGIDGCDLLCCGRGHNARAERRREKCRCVFHWCCYVSCQECTRVYDVHTCK |  |  |  |  | Expression level of β-catenin protein (%) [3]: 208.8%
